Measured values as given in PubChem BioAssay AID260 (DTP/NCI, 2004).
Several values for one entry are separate records, joined by “and”; a condition that tells them apart may be missing. Equal values may be shown once. Toxic doses and inconclusive results are not listed. Rule for the calls: active = survival T/C of 150% or more; inactive = T/C below 125% in these data.

Test system: CD2F1 mice, intracerebral L1210 leukemia, survival T/C
Assay: NCI In Vivo Anticancer Drug Screen. Data for tumor model L1210 Leukemia (intracerebral) in CD2F1 (CDF1) mice
Details: higher = longer survival
Procedure: The antitumor activity of compounds was measured in mice bearing transplantable tumors. Survival or tumor size were measured and the results are expressed as the measurement made in the treated group (T) divided by the measurement made in the vehicle treated control group (C). The tumor model used in this assay is L1210 Leukemia (intracerebral) in CD2F1 (CDF1) mice

[1] = endpoint: median survival time, dose: 50.0 mg/kg/injection, schedule: Q01DX001 (ip), vehicle: DMSO
[2] = endpoint: median survival time, dose: 128.0 mg/kg/injection, schedule: Q01DX005 (ip), vehicle: saline
[3] = endpoint: median survival time, dose: 256.0 mg/kg/injection, schedule: Q01DX005 (ip), vehicle: saline
[4] = endpoint: median survival time, dose: 512.0 mg/kg/injection, schedule: Q01DX005 (ip), vehicle: saline

Measured: T/C

CC1CCC(NC(=O)N(CCCl)N=O)CC1 (stereo unspecified)
inactive: endpoint: median survival time, dose: 4.0 mg/kg/injection, schedule: Q01DX001 (ip), vehicle: other 123 % of control | endpoint: median survival time, dose: 6.25 mg/kg/injection, schedule: Q01DX001 (ip), vehicle: DMSO 116 % of control | endpoint: median survival time, dose: 6.25 mg/kg/injection, schedule: Q01DX001 (ip), vehicle: saline + alcohol 116 % of control | endpoint: median survival time, dose: 6.25 mg/kg/injection, schedule: Q01DX001 (oral), vehicle: saline + alcohol 109 % of control | endpoint: median survival time, dose: 12.5 mg/kg/injection, schedule: Q01DX001 (ip), vehicle: DMSO 116 % of control | endpoint: median survival time, dose: 12.5 mg/kg/injection, schedule: Q01DX001 (ip), vehicle: saline + alcohol 119 % of control | endpoint: median survival time, dose: 12.5 mg/kg/injection, schedule: Q01DX001 (oral), vehicle: saline + alcohol 109 % of control | endpoint: median survival time, dose: 25.0 mg/kg/injection, schedule: Q01DX001 (oral), vehicle: saline + alcohol 120 % of control | [1] 123 % of control | endpoint: median survival time, dose: 64.0 mg/kg/injection, schedule: Q01DX001 (ip), vehicle: other 88 % of control | endpoint: median survival time, dose: 100.0 mg/kg/injection, schedule: Q01DX001 (ip), vehicle: saline + alcohol 92 % of control
active: endpoint: median survival time, dose: 16.0 mg/kg/injection, schedule: Q01DX001 (ip), vehicle: other 166 % of control | endpoint: median survival time, dose: 25.0 mg/kg/injection, schedule: Q01DX001 (ip), vehicle: saline + alcohol 166 % of control | endpoint: median survival time, dose: 32.0 mg/kg/injection, schedule: Q01DX001 (ip), vehicle: other 333 % of control | endpoint: median survival time, dose: 50.0 mg/kg/injection, schedule: Q01DX001 (ip), vehicle: saline + alcohol 155 % of control | endpoint: median survival time, dose: 100.0 mg/kg/injection, schedule: Q01DX001 (ip), vehicle: DMSO 169 % of control | endpoint: median survival time, dose: 100.0 mg/kg/injection, schedule: Q01DX001 (oral), vehicle: saline + alcohol 246 % of control

Nc1n[nH]c(N)n1
inactive: endpoint: mean survival time, dose: 512.0 mg/kg/injection, schedule: Q12HX018 (ip), vehicle: saline 96 % of control | endpoint: mean survival time, dose: 1024.0 mg/kg/injection, schedule: Q12HX018 (ip), vehicle: saline 107 % of control | endpoint: mean survival time, dose: 2048.0 mg/kg/injection, schedule: Q12HX018 (ip), vehicle: saline 110 % of control | [2] 107 % of control and 116 % of control | [3] 108 % of control and 111 % of control | [4] 120 % of control and 115 % of control | endpoint: median survival time, dose: 1024.0 mg/kg/injection, schedule: Q01DX005 (ip), vehicle: saline 119 % of control

CCC(C)N(C)/N=N/c1nc[nH]c1C(N)=O (stereo unspecified)
inactive: endpoint: median survival time, dose: 16.0 mg/kg/injection, schedule: Q01DX005 (ip), vehicle: saline with Tween-80 105 % of control | endpoint: median survival time, dose: 32.0 mg/kg/injection, schedule: Q01DX005 (ip), vehicle: saline with Tween-80 105 % of control | endpoint: median survival time, dose: 64.0 mg/kg/injection, schedule: Q01DX005 (ip), vehicle: saline with Tween-80 116 % of control | endpoint: median survival time, dose: 128.0 mg/kg/injection, schedule: Q01DX005 (ip), vehicle: saline with Tween-80 116 % of control

O=CC(NC(=O)N(CCCl)N=O)C(O)C(O)C(O)CO (stereo unspecified)
inactive: endpoint: median survival time, dose: 3.13 mg/kg/injection, schedule: Q01DX001 (ip), vehicle: saline 103 % of control | endpoint: median survival time, dose: 6.25 mg/kg/injection, schedule: Q01DX001 (ip), vehicle: saline 106 % of control | endpoint: median survival time, dose: 12.5 mg/kg/injection, schedule: Q01DX001 (ip), vehicle: saline 122 % of control | [1] 95 % of control | endpoint: median survival time, dose: 50.0 mg/kg/injection, schedule: Q01DX001 (ip), vehicle: saline 92 % of control | endpoint: median survival time, dose: 50.0 mg/kg/injection, schedule: Q01DX001 (oral), vehicle: saline 97 % of control
active: endpoint: median survival time, dose: 25.0 mg/kg/injection, schedule: Q01DX001 (ip), vehicle: DMSO 152 % of control

CN(Cc1cnc2nc(N)nc(N)c2n1)c1ccc(C(=O)N[C@@H](CCC(=O)O)C(=O)O)cc1
active: endpoint: median survival time, dose: 18.4 mg/kg/injection, schedule: Q04DX003 (ip), vehicle: saline 164 % of control | endpoint: median survival time, dose: 36.8 mg/kg/injection, schedule: Q04DX003 (ip), vehicle: saline 164 % of control
inactive: endpoint: median survival time, dose: 1.2 mg/kg/injection, schedule: Q04DX003 (ip), vehicle: saline 114 % of control | endpoint: median survival time, dose: 2.3 mg/kg/injection, schedule: Q04DX003 (ip), vehicle: saline 121 % of control

Nc1nc(=S)c2[nH]cnc2[nH]1
inactive: endpoint: mean survival time, dose: 0.13 mg/kg/injection, schedule: Q01DX009 (ip), vehicle: other 102 % of control | endpoint: mean survival time, dose: 0.25 mg/kg/injection, schedule: Q01DX009 (ip), vehicle: other 111 % of control | endpoint: mean survival time, dose: 0.5 mg/kg/injection, schedule: Q01DX009 (ip), vehicle: other 108 % of control | endpoint: mean survival time, dose: 1.0 mg/kg/injection, schedule: Q01DX009 (ip), vehicle: other 114 % of control

Nc1ncnc2c1ncn2C1OC(COP(=O)(O)O)C(O)C1O (stereo unspecified)
inactive: endpoint: median survival time, dose: 100.0 mg/kg/injection, schedule: Q01DX009 (ip), vehicle: saline 109 % of control and 110 % of control and 112 % of control | endpoint: median survival time, dose: 200.0 mg/kg/injection, schedule: Q01DX009 (ip), vehicle: saline 97 % of control and 104 % of control and 115 % of control | endpoint: median survival time, dose: 400.0 mg/kg/injection, schedule: Q01DX009 (ip), vehicle: saline 96 % of control and 101 % of control and 117 % of control | endpoint: median survival time, dose: 800.0 mg/kg/injection, schedule: Q01DX009 (ip), vehicle: saline 101 % of control and 108 % of control

O=C1C(NCCO)=C(N2CC2)C(=O)C(NCCO)=C1N1CC1
inactive: endpoint: mean survival time, dose: 0.37 mg/kg/injection, schedule: Q01DX009 (ip), vehicle: saline 111 % of control | endpoint: mean survival time, dose: 1.5 mg/kg/injection, schedule: Q01DX009 (ip), vehicle: saline 119 % of control and 122 % of control

O=P1(NCCCl)OCCC(OO)N1CCCl (stereo unspecified)
inactive: endpoint: median survival time, dose: 40.0 mg/kg/injection, schedule: Q01DX001 (ip), vehicle: Klucel (hydroxypropylcellulose) (HPC) 105 % of control | endpoint: median survival time, dose: 80.0 mg/kg/injection, schedule: Q01DX001 (ip), vehicle: Klucel (hydroxypropylcellulose) (HPC) 111 % of control | endpoint: median survival time, dose: 160.0 mg/kg/injection, schedule: Q01DX001 (ip), vehicle: Klucel (hydroxypropylcellulose) (HPC) 113 % of control | endpoint: median survival time, dose: 320.0 mg/kg/injection, schedule: Q01DX001 (ip), vehicle: Klucel (hydroxypropylcellulose) (HPC) 91 % of control

Nc1nc2c(c(=O)[nH]1)N(C=O)C(CNc1ccc(C(=O)N[C@@H](CCC(=O)O)C(=O)O)cc1)CN2 (stereo partly specified)
inactive: [2] 96 % of control and 106 % of control | [3] 95 % of control and 108 % of control | [4] 92 % of control and 96 % of control

COC(=O)c1cccc(N=NN(C)C)c1
inactive: endpoint: median survival time, dose: 8.0 mg/kg/injection, schedule: Q01DX005 (ip), vehicle: saline + alcohol 104 % of control | endpoint: median survival time, dose: 16.0 mg/kg/injection, schedule: Q01DX005 (ip), vehicle: saline + alcohol 100 % of control | endpoint: median survival time, dose: 32.0 mg/kg/injection, schedule: Q01DX005 (ip), vehicle: saline + alcohol 104 % of control | endpoint: median survival time, dose: 64.0 mg/kg/injection, schedule: Q01DX005 (ip), vehicle: saline + alcohol 113 % of control | endpoint: median survival time, dose: 128.0 mg/kg/injection, schedule: Q01DX005 (ip), vehicle: saline + alcohol 117 % of control
